Test results taken from US20220162257A1, “3ALPHA, 5BETA-NEUROACTIVE STEROIDS FOR THE TREATMENT OF EPILEPSY AND SEIZURE DISEASES” (USTAV ORGANICKE CHEMIE A BIOCHEMIE AV CR, V. V. I., priority 2019, published 2022).

Tests used:
Assay type in all cases: in vivo, rat
[1] = system: seizures elicited by 6 Hz stimulation in rats; assay: 6 Hz transcorneal electrical stimulation seizure model in rats
Procedure: (§1) Anticonvulsant effect of compounds was evaluated in two models of epileptic seizures in immature rats (PTZ model and 6 Hz model). PTZ convulsions were tested in 12- and 25-day-old rats, 6 Hz-induced seizures in 15- and 25-day-old rats. Young adult rats (P60) were also used in either test. Day of birth was taken as P0. Experiments evaluating precognitive effect were performed in adult male rats of the Wistar and Long Evans strain (3 months old, b.w. 300-400 g). All animals were obtained from a breeding facility of Institute of Physiology CAS (certificate No. 1396/2014-MZE-17214) Animals were held in standard conditions (21±1° C., humidity 50-60%, light regime 12/12) with unrestricted access to food and water. All manipulations with animals were performed according to the https://nc3rs.org.uk/arrive-guidelines and to Czech Animal Protection Law 246/1992 Sb. And international directives (EU Directive 2010/63/EU for animals' experiments).
Two age groups of immature male Wistar rats were used in either experiment. In PTZ model P12 corresponding by a maturation of the brain to early postnatal human babies, i.e. to the period where children epileptic encephalopathy mostly resistant to present pharmacotherapy start to appear. The other group—P25 animals corresponds with school-age children. Generalized tonic-clonic seizures were elicited by a subcutaneous injection of PTZ in a dose of 100 mg/kg. The 6 Hz model was tested in P15 (at this age eyes are open and it is not necessary to surgically distract lids). Biphasic pulses with […] were applied transcorneally for 3 s by a constant current stimulator of Ugo Basile company. PTZ induced generalized seizures represent a model of human generalized tonic-clonic seizures, seizures elicited by 6 Hz stimulation are generally taken as a model of temporal (psychomotor, complex partial) seizures. Differences in latencies and seizure severity were evaluated by ANOVA with a subsequent pairwise comparison by Holm-Sidak test. Incidence of seizures were evaluated by Fischer exact test. Critical p value was set at p=0.05.
Younger group was formed by 15-day-old animals—the animals at this age have open eyes and it is not necessary to distract eyelids surgically. The other group was 25 days old. Sensitivity of these two age groups is different, therefore we used current intensities of 40, 60, and 80 mA in 15-day-old rats and 20, 40, and 60 mA in the 25-day-old animals. Stimulations were made in 20-min intervals, 10 min before each stimulation a drop of mesocaine into either eye was used as a local anesthetic. Steroid derivatives in a dose of 10 mg/kg i.p. were administered 20 min before the first stimulation. Seizures elicited by 60-mA intensity of stimulation current were suppressed, those elicited by 80 mA not.

[2] = system: generalized tonic-clonic seizures in adult rats; assay: seizures in young adult (P60) rats, FIGS. 6A-6C
Procedure: FIGS. 6A-6C show anticonvulsant effect of a substance from Example 1 in a model of seizures elicited by 6 Hz transcorneal electrical stimulation in young adult (P60) male rats. Steroid substance in dose 1, 5, or 10 mg/kg i.p. (x-axis) was administered 20 min before the first stimulation. Graph 6A (y-axis in %)—incidence of complete (GTCS) and incomplete, i.e. without the tonic phase (GCS) generalized seizures; graph 6B (y-axis in %)—incidence of minimal clonic seizures; graph 6C (y-axis in s)—latencies of generalized seizures.
as §1
GTCS were present in only one rat after the 10-mg/kg dose.

memory in rats = assay: Passive avoidance test, intact animals and dizocilpine (MK-801) schizophrenia-like behavior
Procedure: as §1
Schizophrenia-like behavior was induced by i.p. administration of dizocilpine (MK-801) at a dose of 0.1 mg/kg. The effect of the Compound from Example 1 was tested in Passive avoidance test (Psychopharmacology (Berl). 2016, 233, 2077). This test allows to study memory and learning ability. The Compound from Example 1 was applied for 30 min i.p. before the task in doses of 0.1; 1 and 3 mg/kg.

Compound: CC(=O)[C@H]1CC[C@H]2[C@@H]3CC[C@@H]4C[C@H](OC(=O)C5CCC(=O)N5)CC[C@]4(C)[C@H]3CC[C@]12C (stereo partly drawn) [Example 1, (3R,5R,8R,9S,10S,13S,14S,17S)-17-Acetyl-10,13-dimethylhexadecahydro-1H-cyclopenta[a]fenantren-3-yl 5-oxopyrrolidine-2-carboxylate]
- seizure severity ([1]; P15 rats, 10 mg/kg i.p.): not affected
- duration of seizures ([1]; P15 rats, 60 and 80 mA, 10 mg/kg i.p.): significantly shortened at both current intensities
- incidence of seizures ([1]; P15 rats, 60 mA, 10 mg/kg i.p.): suppressed
- incidence of seizures (suppressed or not) ([1]; P15 rats, 80 mA, 10 mg/kg i.p.): not
- duration of seizures ([1]; P25 rats, 10 mg/kg i.p.): significantly shorter
- incidence of seizures ([1]; P25 rats, 10 mg/kg i.p.): tendency to a decreased incidence of seizures
- seizure intensity (severity) ([1]; P25 rats, 10 mg/kg i.p.): lower intensity
- changes of the threshold intensity ([1]; adult (P60) rats, 1, 5, 10 mg/kg i.p., tendency after 10 mg/kg): did not reach the level of significance
- latency to GTCS ([2]; 5 mg/kg i.p.): significantly decreased
- animals with GTCS ([2]; 10 mg/kg i.p.): only one rat
- incidence of generalized tonic-clonic seizures (GTCS) ([2]; 10 mg/kg i.p.): significantly decreased the incidence
- minimal clonic seizures ([2]; 10 mg/kg i.p.): remained unaffected
- seizure severity ([2]; 5 and 10 mg/kg i.p.): significantly decreased
- memory damage measured 1 h after the stimulus (memory in rats; dizocilpine 0.1 mg/kg, compound 0.1 mg/kg i.p.): prevented memory damage
- memory one hour after the aversive stimulus (memory in rats; intact animals, 0.1, 1 and 3 mg/kg i.p.): does not impair memory
